The values that follow come from patent US20060009432A1, “Use of neurosteroids to treat neuropathic pain” (priority 2004, published 2006).

In this assay the test system is chronic constriction injury (CCI) of the sciatic nerve, rats. As to the kind of experiment: Cold allodynia (acetone application) in chronic constriction injury model. The following applies: neuropathic pain model as disclosed in Example 2. In kind it is in vivo, rat. How it is done: Unilateral sciatic nerve injury was produced under deep anesthesia with i.p injection of sodium pentobarbital (Mebumal, 60 mg/kg), as described by Bennett and Xie (Pain, 33, 87-107(1988)). The common sciatic nerve was exposed and freed for about 10 mm at mid-thigh level. Four ligatures (Ethicon, 4.0 plain gut) were tied loosely around the nerve with about 1-mm spacing creating a chronic constriction injury (CCl), and the incision was closed.
Brisk foot withdrawal in response to acetone application was measured based on the method described by Choi et al. The acetone bubble was gently brought in touch with the plantar surface around the center, and the acetone quickly spread over the central part of the plantar surface of the foot. Applications were made five times (once every 5 min) to each paw. The score for each application was recorded as follows: foot withdrawal was scored as positive (1) and lack of withdrawal as negative (O). The total score (0 to 5) was taken as index for cold sensitivity of the foot […]. This approximates pain from a non-noxious stimulus, i.e. allodynia.
Cold allodynia response was measured 15, 30, 45, 60, 90 and 120 minutes after i.p. administration of ganaxolone (at 1 mg/kg, 3 mg/kg or 10 mg/kg) as well as prior to administration of the neurosteroid and prior to infliction of the neural injury. Table 1 provides the resulting measurement of cold allodynia response in groups of six rats per dosage level. The abbreviation “s.e.m.” means standard error mean.

In the case of `C[C@]12CC[C@@H](O)C[C@@H]1CC[C@H]1[C@@H]3CC[C@H](C(=O)CO)[C@@]3(C)CC(=O)[C@@H]12` [Alphadolone, reference compound], the “Activity in the neuropathic pain model” value is “inactive”.
